Laboratory results as given in patent US4265910A (priority 1979, dated 1981).
Structures can show the parent of a compound that is named as a salt. Where two headings read alike, the source gives them in different places.

Tests used:
[1] = tested on: vaccinia virus (DIE strain); type: in vivo, ICR female mice; settings: 8th day after inoculation
Human fibroblast cells = experiment: cells; type: cell-based; settings: read-out: Inhibition of cytolysis
serum interferon = experiment: animal or person; type: in vivo, ICR female mice; settings: Mus musculus, L929, ip, 20 h, read-out: Plaque inhibition
[2] = Acute toxicity (50% lethal dose); settings: mouse, in vivo, ddY male mice 20-25 g
Source text: In order to investigate acute toxicity of the ingredients of the present invention, 50% lethal dose of each ingredient was obtained by intravenous and intraperitoneal administration thereof by ddY male mice weighing 20-25 g. From the results shown in Table 5, it is understood that the ingredients had high safety margin.

[3] = ip, intraperitoneal, read-out: 50% Lethal dose, intraperitoneally administered
[4] = intravenous, read-out: 50% Lethal dose, intravenously administered

Compound | Inhibition of tail lesion ([1]; 20 mg/kg i.p., consecutively dosed (6 times)) [%] | Inhibition of tail lesion ([1]; 20 mg/kg i.p., dosed one time) [%] | Inhibition of tail lesion ([1]; 20 mg/kg p.o., consecutively dosed (6 times)) [%] | Inhibition of tail lesion ([1]; 30 mg/kg i.p., dosed one time) [%] | Inhibition of tail lesion ([1]; 30 mg/kg s.c., dosed one time) [%] | Inhibition of tail lesion ([1]; 40 mg/kg i.p., consecutively dosed (6 times)) [%] | Inhibition of tail lesion ([1]; 40 mg/kg i.p., dosed one time) [%] | Inhibition of tail lesion ([1]; 50 mg/kg p.o., dosed one time) [%] | inhibition at 5 µg/disc (Human fibroblast cells) [%] | inhibition at 20 mg/kg (serum interferon) [%] | inhibition at 40 mg/kg (serum interferon) [%] | LD50 [2, 3] [mg/kg] | LD50 [2, 4] [mg/kg] | Inhibition of tail lesion ([1]; 40 mg/kg p.o., dosed one time) [%] | Inhibition of tail lesion ([1]; 100 mg/kg p.o., dosed one time) [%]
CC(C)=CCCC(C)=CCCC(C)=CCCC(C)=CCCC(C)=CCCC(C)=CCCC(C)=CCCC(C)=CCCC(C)=CCCC(C)=CCN [Decaprenylamine hydrochloride] | 77.4 | 76.1 | 56.8 | 68.7 | 69.7 | 88.2 | 79.6 | 24.1 | 64.9 | 47.1 | 83 | 1000 | 39.5 | – | –
CC(C)=CCCC(C)=CCCC(C)=CCCC(C)=CCCC(C)=CCCC(C)=CCCC(C)=CCCC(C)=CCCC(C)=CCN [Solanesylamine hydrochloride, solanesylamine hydrochloride] | – | 35.7 | – | 72.1 | 23.2 | – | – | – | 55.4 | 81 | 79.7 | > 500 | 32.3 | 40.5 | –
CC(C)=CCCC(C)=CCCC(C)=CCCC(C)=CCCC(C)=CCCC(C)=CCCC(C)=CCCC(C)=CCCC(C)=CCCC(C)=CCCC(C)=CCN [Undecaprenylamine hydrochloride] | – | 52.4 | – | 40.5 | – | – | – | – | 83.3 | – | 70.3 | > 1000 | 18 | – | 45.6
